Source: the NIST ThermoML archive (doi:10.1016/j.jct.2016.11.024)
Numbers after ± are expanded uncertainties.

Conditions: Liquid, Ebulliometric method (Recirculating still)

| vapor or sublimation pressure (356.53 K) [kPa] | vapor or sublimation pressure (380.5 K) [kPa] | vapor or sublimation pressure (391.77 K) [kPa] | vapor or sublimation pressure (389.1 K) [kPa] | vapor or sublimation pressure (412.93 K) [kPa] | vapor or sublimation pressure (424.43 K) [kPa] | SMILES |
| --- | --- | --- | --- | --- | --- | --- |
| 2 ± 0.2 | 6 ± 0.61 | 10 ± 1 | – | – | – | CCCCCCCC(=O)OC [methyl octanoate] |
| – | – | – | 2 ± 0.2 | 6 ± 0.61 | 10 ± 1 | CCCCCCCCCC(=O)OC [methyl decanoate] |
